Assay results from patent US6379696B1, “Therapeutic preparation for the transdermal administration of active substances” (priority 1995, dated 2002).

Assays:
[1] = topical application; cited from earlier work
[2] = Permeation rate of morphine base through excised guinea pig skin with added LOVASTATIN; settings: LOVASTATIN 2%-wt. added; after 24 h; released in 0.9% salt solution, T=37° C., n=3

In the case of `CC[C@H](C)C(=O)O[C@H]1C[C@@H](C)C=C2C=C[C@H](C)[C@H](CC[C@@H]3C[C@@H](O)CC(=O)O3)[C@H]21` [LOVASTATIN], the “DNA-synthesis in the epidermis” value [1] is given as “increase”, the “cholesterol level in the skin” value [1] is given as “decrease” and the “transepidermal loss of water” value [1] is given as “increase”. For the same compound, the “permeation rate of morphine base” value [2] was “double”.
